Laboratory results: article PMC8956739, “A synthetic lipopeptide targeting top-priority multidrug-resistant Gram-negative pathogens” (Nature Communications, 2022)
In brackets after ≈: the same amount, converted by molar mass. Read-outs that look alike come from different tables or passages of the source. Residues, ends and D or L forms follow the SMILES beside them.

How the values were obtained:
A. baumannii AB5075 = test: Transcriptomic analysis (RNA-Seq) of bacteria; format: cell-based, Acinetobacter baumannii; settings: for logFC (Differential gene expression for all genes), Geneid ABUW_RS00005 / logFC (Differential gene expression for all genes), Geneid ABUW_RS00020 / logFC (Fold change), gene ABUW_RS00010 / logFC (Fold change), gene ABUW_RS00030 / logFC (Fold change), gene ABUW_RS00035 / logFC (Fold change), gene recF (ABUW_RS00015) / 4h_1h logFC (Differential gene expression for all genes), Geneid ABUW_RS00005 / 4h_1h logFC (Differential gene expression for all genes), Geneid ABUW_RS00010 / 4h_1h logFC (Differential gene expression for all genes), Geneid ABUW_RS00015 / 4h_1h logFC (Differential gene expression for all genes), Geneid ABUW_RS00020: RNA-Seq A. baumannii AB5075; for log2FC, gene ABUW_RS01945 (acyl-CoA thioesterase II) / log2FC, gene ABUW_RS02545 (acyl-CoA thioesterase) / log2FC, gene ABUW_RS05045 (acyl-CoA thioesterase) / log2FC, gene ABUW_RS17575 (acyl-CoA thioesterase): pathway Fatty Acid and Lipid Degradation; for 4h_1h logFC (Differential gene expression for all genes), Geneid ABUW_RS00005 / 4h_1h logFC (Differential gene expression for all genes), Geneid ABUW_RS00010 / 4h_1h logFC (Differential gene expression for all genes), Geneid ABUW_RS00015 / 4h_1h logFC (Differential gene expression for all genes), Geneid ABUW_RS00020: 4h vs 1h
Experimental: Mid-log phase A. baumannii AB5075 (~10^8 CFU/mL) in CaMHB was treated with colistin (2 and 8 μg/mL), F287, F319 or F365 (equimolar concentration to colistin) for 1 and 4 h. Total RNA was extracted using TRIzol Reagent (Invitrogen, USA) and RNeasy Mini Kit (Qiagen, Germany). Quality check of RNA samples was conducted with NanoDrop (Thermo Fisher Scientific, USA) and Agilent 2100 Bioanalyzer (Agilent Technologies, USA) for sequencing (150 bp paired-end) at Genewiz (Shanghai, China). Raw reads were aligned to A. baumannii AB5075 genome (GCF_000963815, https://www.ncbi.nlm.nih.gov/assembly/GCF_000963815.1/) using subread-aligner (subread 2.0.1) and summarized by featureCounts (subread 2.0.1). Principal component analysis (PCA) was conducted with mixOmics 6.14.1 in R. Differentially expressed genes were determined using limma 3.46.0 with a combination of fold change ≥ 2 and false discovery rate (FDR, by Benjamini–Hochberg algorithm) adjusted P-value ≤ 0.05 (n = 3). Enrichment analysis of gene differential expression in AB5075 was conducted using BioCyc (A. baumannii AB5075, version 25.5). UpSetR 1.4.0, ComplexHeatmap 2.6.2 and circlize 0.4.13 were used for data visualization. Raw data were deposited in Short Reads Archive (SRA) database under accession numbers SRR15235669-SRR15235725.

Swiss mice, kidney = test: Nephrotoxicity in mice (kidney histopathology); format: in vivo, mouse
In short: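 Female Swiss mice (7-week-old, 22–28 g) received lipopeptides in saline either s.c. at 12 mg/kg ×6 every 2 h (total 72 mg/kg, n = 3) or i.p. at 20 or 25 mg/kg ×6 every 2 h (total 120 mg/kg, n = 6; 150 mg/kg, n = 3). Right kidney collected 20 h after last dose, fixed in 10% buffered formalin (pH 7.4), histology scored blinded.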

[1] = system: MDR clinical isolates of P. aeruginosa (n = 213, 55 carbapenem-resistant); format: cell-based, Pseudomonas aeruginosa
In short: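 Susceptibility: microdilution MIC in CaMHB.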

[2] = system: P. aeruginosa FADDI-PA038; format: cell-based, Pseudomonas aeruginosa; settings: carbapenem-resistant isolate
In short: (§1)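 MICs came from broth microdilution in cation-adjusted Mueller–Hinton broth against clinical isolates. For surfactant binding, P. aeruginosa ATCC 27853 was additionally tested with 10% Survanta® (v/v, 2.5 mg/mL phospholipids) added to the polymyxin-containing broth.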

P. aeruginosa ATCC 27853 = format: cell-based, Pseudomonas aeruginosa
In short: as §1

[3] = system: P. aeruginosa FADDI-PA025; format: cell-based, Pseudomonas aeruginosa; settings: FADDI-PA025
In short: as §1

[4] = 150 mg/kg/d IP in 6 divided doses every 2 h
[5] = MDR clinical isolates of (n = 213, 55 carbapenem-resistant)

CC[C@@H]1NC(=O)[C@@H](CC(C)C)NC(=O)[C@H](CCN)NC(=O)[C@@H](NC(=O)[C@H](CN)NC(=O)[C@@H](NC(=O)[C@H](CCN)NC(=O)c2ccc(Cl)cc2Cl)[C@@H](C)O)CCNC(=O)[C@H]([C@@H](C)O)NC(=O)[C@H](CCN)NC(=O)[C@H](CCN)NC1=O [Lipopeptide F365] (HELM PEPTIDE1{[O=C(c1ccc(Cl)cc1Cl)[*:2]].[Dab].T.[NC[C@H](N[*:1])C(=O)[*:2]].[Dab].[Dab].[dL].[Abu].[Dab].[Dab].T}$PEPTIDE1,PEPTIDE1,5:R3-11:R2$$$V2.0)
logFC (Differential gene expression for all genes), Geneid ABUW_RS00005 (A. baumannii AB5075; H vs Cont, 1h): 0.01563 | logFC (Differential gene expression for all genes), Geneid ABUW_RS00020 (A. baumannii AB5075; H vs Cont, 1h): 0.4229 | logFC (Fold change), gene ABUW_RS00010 (A. baumannii AB5075; H vs Cont, 1h): 0.4611 | logFC (Fold change), gene ABUW_RS00030 (A. baumannii AB5075; H vs Cont, 1h): -0.6384 | logFC (Fold change), gene ABUW_RS00035 (A. baumannii AB5075; H vs Cont, 1h): 1.28 | logFC (Fold change), gene recF (ABUW_RS00015) (A. baumannii AB5075; H vs Cont, 1h): -0.2583 | log2FC, gene ABUW_RS01945 (acyl-CoA thioesterase II) (A. baumannii AB5075; H vs Cont, 1h): 0.05276 | log2FC, gene ABUW_RS02545 (acyl-CoA thioesterase) (A. baumannii AB5075; H vs Cont, 1h): 1.462 | log2FC, gene ABUW_RS05045 (acyl-CoA thioesterase) (A. baumannii AB5075; H vs Cont, 1h): 0.342 | log2FC, gene ABUW_RS17575 (acyl-CoA thioesterase) (A. baumannii AB5075; H vs Cont, 1h): -0.4502 | logFC (Differential gene expression for all genes), Geneid ABUW_RS00005 (A. baumannii AB5075; H vs Cont, 4h): -0.1188 | logFC (Differential gene expression for all genes), Geneid ABUW_RS00020 (A. baumannii AB5075; H vs Cont, 4h): 0.1404 | logFC (Fold change), gene ABUW_RS00010 (A. baumannii AB5075; H vs Cont, 4h): 1.271 | logFC (Fold change), gene ABUW_RS00030 (A. baumannii AB5075; H vs Cont, 4h): -1.908 | logFC (Fold change), gene ABUW_RS00035 (A. baumannii AB5075; H vs Cont, 4h): 1.362 | logFC (Fold change), gene recF (ABUW_RS00015) (A. baumannii AB5075; H vs Cont, 4h): -0.8325 | log2FC, gene ABUW_RS01945 (acyl-CoA thioesterase II) (A. baumannii AB5075; H vs Cont, 4h): -0.9573 | log2FC, gene ABUW_RS02545 (acyl-CoA thioesterase) (A. baumannii AB5075; H vs Cont, 4h): 1.303 | log2FC, gene ABUW_RS05045 (acyl-CoA thioesterase) (A. baumannii AB5075; H vs Cont, 4h): 0.7194 | log2FC, gene ABUW_RS17575 (acyl-CoA thioesterase) (A. baumannii AB5075; H vs Cont, 4h): -2.7329 | 4h_1h logFC (Differential gene expression for all genes), Geneid ABUW_RS00005 (A. baumannii AB5075; H): -0.4851 | 4h_1h logFC (Differential gene expression for all genes), Geneid ABUW_RS00010 (A. baumannii AB5075; H): 0.8595 | 4h_1h logFC (Differential gene expression for all genes), Geneid ABUW_RS00015 (A. baumannii AB5075; H): -1.098 | 4h_1h logFC (Differential gene expression for all genes), Geneid ABUW_RS00020 (A. baumannii AB5075; H): 0.6821 | logFC (Differential gene expression for all genes), Geneid ABUW_RS00005 (A. baumannii AB5075; L vs Cont, 1h): 0.07464 | logFC (Differential gene expression for all genes), Geneid ABUW_RS00020 (A. baumannii AB5075; L vs Cont, 1h): -0.04639 | logFC (Fold change), gene ABUW_RS00010 (A. baumannii AB5075; L vs Cont, 1h): 0.04206 | logFC (Fold change), gene ABUW_RS00030 (A. baumannii AB5075; L vs Cont, 1h): 0.5072 | logFC (Fold change), gene ABUW_RS00035 (A. baumannii AB5075; L vs Cont, 1h): -0.01907 | logFC (Fold change), gene recF (ABUW_RS00015) (A. baumannii AB5075; L vs Cont, 1h): 0.05956 | log2FC, gene ABUW_RS01945 (acyl-CoA thioesterase II) (A. baumannii AB5075; L vs Cont, 1h): 0.4901 | log2FC, gene ABUW_RS02545 (acyl-CoA thioesterase) (A. baumannii AB5075; L vs Cont, 1h): -0.0862 | log2FC, gene ABUW_RS05045 (acyl-CoA thioesterase) (A. baumannii AB5075; L vs Cont, 1h): -0.2681 | log2FC, gene ABUW_RS17575 (acyl-CoA thioesterase) (A. baumannii AB5075; L vs Cont, 1h): -0.08172 | logFC (Differential gene expression for all genes), Geneid ABUW_RS00005 (A. baumannii AB5075; L vs Cont, 4h): 0.1571 | logFC (Differential gene expression for all genes), Geneid ABUW_RS00020 (A. baumannii AB5075; L vs Cont, 4h): -0.1135 | logFC (Fold change), gene ABUW_RS00010 (A. baumannii AB5075; L vs Cont, 4h): 0.2996 | logFC (Fold change), gene ABUW_RS00030 (A. baumannii AB5075; L vs Cont, 4h): 0.4017 | logFC (Fold change), gene ABUW_RS00035 (A. baumannii AB5075; L vs Cont, 4h): 0.1258 | logFC (Fold change), gene recF (ABUW_RS00015) (A. baumannii AB5075; L vs Cont, 4h): -0.3068 | log2FC, gene ABUW_RS01945 (acyl-CoA thioesterase II) (A. baumannii AB5075; L vs Cont, 4h): -0.2225 | log2FC, gene ABUW_RS02545 (acyl-CoA thioesterase) (A. baumannii AB5075; L vs Cont, 4h): -0.9002 | log2FC, gene ABUW_RS05045 (acyl-CoA thioesterase) (A. baumannii AB5075; L vs Cont, 4h): 0.02763 | log2FC, gene ABUW_RS17575 (acyl-CoA thioesterase) (A. baumannii AB5075; L vs Cont, 4h): -0.0188 | 4h_1h logFC (Differential gene expression for all genes), Geneid ABUW_RS00005 (A. baumannii AB5075; L): -0.03686 | 4h_1h logFC (Differential gene expression for all genes), Geneid ABUW_RS00010 (A. baumannii AB5075; L): -0.6141 | 4h_1h logFC (Differential gene expression for all genes), Geneid ABUW_RS00015 (A. baumannii AB5075; L): -0.239 | 4h_1h logFC (Differential gene expression for all genes), Geneid ABUW_RS00020 (A. baumannii AB5075; L): -0.06215 | Kidney histopathology (SQS Score) (Swiss mice, kidney; 72 mg/kg/d subcutaneously in six divided doses every 2 h, n = 3): 0 (SQS 0 = no significant change (overall score, <1)) | SQS score (Swiss mice, kidney; [4]): 0 (SQS 0 = no significant change (overall score, <1)) | mice with the SQS score (Swiss mice, kidney; [4]): 3/3 | Kidney histopathology, mice with the SQS score (Swiss mice, kidney; mouse, in vivo): 3/3 | Kidney histological damage, mice with the given grade (Swiss mice, kidney; mouse, in vivo, ip, 120 mg/kg/day): 6/6 | Kidney damage (Swiss mice, kidney; mouse, in vivo, ip, 150 mg/kg): no significant damage to the kidneys | MIC50 [1, 5]: 0.5 µg/mL (≈ 0.431 µM) | MIC90 [1, 5]: 1 µg/mL (≈ 0.862 µM) | potency relative to polymyxin B ([1]; MIC50/MIC90, P. aeruginosa panel): 2 fold | Number of isolates ([1]; isolates with MIC 0.05 μg/mL (so in the source)): 1 | Number of isolates ([1]; isolates with MIC 0.125 μg/mL (so in the source)): 6 | Number of isolates ([1]; isolates with MIC 0.25 μg/mL (so in the source)): 28 | Number of isolates ([1]; isolates with MIC 0.5 μg/mL (so in the source)): 159 | Number of isolates ([1]; isolates with MIC 1 μg/mL (so in the source)): 13 | Number of isolates ([1]; isolates with MIC 2 μg/mL (so in the source)): 1 | Number of isolates ([1]; isolates with MIC 4 μg/mL (so in the source)): 2 | Number of isolates ([1]; isolates with MIC 8 μg/mL (so in the source)): 0 | Number of isolates ([1]; isolates with MIC 16 μg/mL (so in the source)): 1 | Number of isolates ([1]; isolates with MIC 32 μg/mL (so in the source)): 0 | Number of isolates ([1]; isolates with MIC 64 μg/mL (so in the source)): 0 | Number of isolates ([1]; isolates with MIC >64 μg/mL (so in the source)): 2 | MIC P. aeruginosa FADDI-PA038 [2]: 0.5 µg/mL (≈ 0.431 µM) | impact of lung surfactant on MIC (P. aeruginosa ATCC 27853; 10% Survanta vs none): not impacted | MIC P. aeruginosa ATCC 27853 (P. aeruginosa ATCC 27853; ATCC 27853): 0.5 µg/mL (≈ 0.431 µM) | MIC, No Survanta (P. aeruginosa ATCC 27853; ATCC 27853): 0.5 µg/mL (≈ 0.431 µM) | MIC P. aeruginosa FADDI-PA025 [3]: 0.5 µg/mL (≈ 0.431 µM)
